Legend:
[1] = test system: A549 human lung cancer cell line harboring constitutively active Ras mutant; test: MTT growth inhibition assay, A549; type: cell-based; conditions: A549, MTT
Experimental: (§1) MCF-7 (breast cancer), T47D (breast cancer), Colo 205 (colon cancer), JM-1 (rat hepatoma), Sk Mel-2 (melanoma), PLC (human hepatoma), and HepG2 (human hepatoma) were obtained from American Type Cell Culture Collection. MCF-7 cells were grown in RPMI medium supplemented with 10% Fetal Bovine Serum. The remaining cell lines were grown in DMEM medium supplemented with 10% Fetal Bovine Serum. For the assay, cells were seeded into 96 well plates in medium containing 1% Fetal Bovine Serum and 100 μL of a cell suspension containing 5000 cells per well were used for each well. Cell growth was evaluated utilizing MTT ((3-(4,5-Dimethylthiazol-2-yl)-2,5-diphenyltetrazolium). The absorbance of the wells at 544 nm was determined by a FLUOstar/POLARstar Galaxy (BMG Lab Technologies GmbH) microplate reader.
(§2) The growth inhibitory activity of compounds was compared using the A549 human lung cancer cell line harboring constitutively active G12D Ras mutant with the help of an MTT assay. […] Stepwise extensions and truncations confirmed that the peptide had the optimal length (see Table 1).
(§3) The growth inhibitory activity of compounds was compared using the A549 human lung cancer cell line harboring constitutively active G12D Ras mutant with the help of an MTT assay.

[2] = test system: activated (GTP-bound) Ras in H358 human lung cancer cells; test: Raf-RBD pull-down of active (GTP-bound) Ras; type: cell-based; conditions: 5 μM, varying exposure times
Experimental: H358 human lung cancer cells were grown in 6-well plates in DMEM medium containing 10% FBS. When the cells were about 70% confluent, the medium was replaced with DMEM containing 1% FBS. Two hours later, Ras inhibitors (kR-H6-48, HR-1, kR-4A-4, or kR-4B-2) were added to provide a final concentration of 5 μM.
After varying exposure times, the cells were rinsed with PBS and lysed. The lysates were cleared by centrifugation, incubated with immobilized Raf-RBD beads (which bind Ras) and analyzed by Western blot using manufacturer's protocols (Cytoskeleton, Inc., Denver, Colo.; Catalog No. BK008). The bands corresponding to active (GTP-bound) Ras were quantified with the help of MIPAV software.

[3] = test system: Ras-dependent cancer cells (H358, SKBR3, SKOV3, ID8, MPR-178); test: MTT growth assay on Ras-dependent cancer cells; type: cell-based, human, murine; conditions: 48 hours, 1% FBS
Experimental: Ras-dependent cancer cells (H358 human lung cancer cells, SKBR3 human breast cancer cells, SKOV3 human ovarian cancer cells, ID8 murine ovarian cancer cells, and MPR-178 murine prostate cancer cells) were grown in DMEM medium containing 1% FBS and exposed to varying concentrations of Ras inhibitors (kR-H6-48 and HR-1) for 48 hours. Cell growth was evaluated utilizing an MTT ((3-(4,5-Dimethylthiazol-2-yl)-2,5-diphenyltetrazolium) assay. The absorbance of the wells at 544 nm was determined by a FLUOstar/POLARstar Galaxy (BMG Lab Technologies GmbH, Ortenberg, Germany) microplate reader. The assays were performed on untreated (control) and test cells. Cellular responses were calculated from the data using the following formula: 100×[(T−T0)/(C−T0)] for T>T0 and 100×[(T−T0)/T0] for T<T0, wherein T0 corresponds to cell density at the time of drug addition.

[4] = test system: HCC15 cells; test: Wound closure assay; type: cell-based
[5] = test system: HCC15 cells; test: Cell invasion, Boyden Chambers; type: cell-based; conditions: IC25 concentration
Experimental: Cell invasion assays were performed using the BD Biocoat Matrigel Invasion Chambers in accordance with the manufacturer's protocol. Cells (1×10^5/mL) were seeded onto 12-well cell culture chamber using inserts with 8 μm pore size polycarbonate membrane over a thin layer of Matrigel Basement Membrane Matrix without phenol red (BD Biosciences) diluted at 1:100 in PBS. Following incubation of the plates for 48 hours at 37° C., cells that invaded through the Matrigel and migrated to the lower surface of the membrane were stained with Giemsa solution, counted under the microscope in at least 10 different fields, and photographed. Three wells were examined for each condition and cell type, and the experiments were repeated in triplicate.
(§4) The rate of migration and invasion was determined using Boyden Chambers (Millipore) in accordance with the manufacturer's protocol.

[6] = test system: HCC15 cells; test: Cell migration, Boyden Chambers; type: cell-based; conditions: IC25 concentration
Experimental: as §4

[7] = test system: DPPC bilayers containing 5% DPPE stabilized by MSP1 scaffold protein (nanodiscs); test: SPR membrane binding to phospholipid bilayer nanodiscs
Experimental: Dipalmitoylphosphatidylcholine (DPPC) bilayers containing 5% dipalmitoyldiphosphatidylethanolamine (DPPE) stabilized by MSP1 scaffold protein were prepared. […] The preparation procedure involved mixing DPPC lipids with MSP1 at a 90:1 molar ratio in the presence of 100 mM cholate. Cholate was removed by slow dialysis. The assembled nanodiscs were purified by size-exclusion chromatography on a calibrated Superdex 200 column and immobilized on a surface plasmon resonance (SPR) sensor chip.
The presence of a primary amine group in DPPE provided a convenient site for cross-linking of nanodiscs to an SPR sensor chip. The noncross-linked dextran in the sample and reference cells was blocked by the coupling reagent. Four different peptides were used to study membrane binding by SPR. […] The HVR peptide lacks post-translational modifications present in K-Ras4B. The second peptide is the HVR peptide conjugated to S-farnesyl L-cysteine methyl ester via a bifunctional cross-linker Sulfosuccinimidyl-4-(N-maleimidomethyl)cyclohexane-1-carboxylate (Sulfo-SMCC) (Pierce). The other two peptides were kR-4A-C1 and kR-4B-C1.
In this situation determination of true dissociation constants was not feasible. Instead, the data were analyzed using the Hill equation. The Hill coefficient describes the degree of binding cooperativity.

[8] = test system: H358 human lung cancer cells with mutated K-Ras; test: H358 tumor growth in nude mice; type: in vivo
Source text: 2×10^6 H358 human lung cancer cells with mutated K-Ras were implanted subcutaneously (s.c.) in nude mice.

[9] = test system: human lung tumor cell lines (A549, H460, and H1944) and a mouse astrocytoma cell line (187436 tu2) expressing mutated K-Ras; test: Growth inhibition in cell lines expressing mutated K-Ras (FIGS. 2 and 3); type: cell-based; conditions: A549, H460, H1944, 187436 tu2
Source text: The cell line was generated from astrocytoma developed in a transgenic mouse harboring a G12D mutation in K-Ras and inactivation of the Rb gene.

[10] = test system: A549 human lung cancer cell line harboring constitutively active G12D Ras mutant; test: MTT growth inhibition assay, A549; type: cell-based
Experimental: as §1, §2, §3

[11] = test system: Ras protein in H2009 and H2592 cells; test: Western blot of Ras protein amount in cancer cells; type: cell-based; conditions: 0-3.0 μM, 18 hours
Experimental: A further experiment was undertaken to determine the effect of analogs of helix 6 and HVR on the amount of K-Ras protein in cancer cells. H2009 (lung adenocarcinoma cells) and H2592 (plural mesothelioma cells) were exposed to varying concentrations (0-3.0 μM) of kR-4A-3, kR-4B-3, or kR-H6-3 for 18 hours. The cells then were lysed and the lysate was analyzed by Western blot using anti-Ras mAb (Cell Biolabs, Inc.).

[12] = target: K-Ras in H2592 cells (Homo sapiens, UniProt P01116); conditions: GI50 concentrations, 18 hours
Source text: Goat anti-mouse antibodies with Alexa Fluor TM 594 (red) were used to visualize the anti-Ras mouse mAb.

Ac-AFYTLVREIRQYR [kR-H6-17]
GI50 ([1]; Table 1 helix 6 derivatives): > 5000 nM

Ac-AFYTLVREIRQYRK (e-Pal) [kR-H6-8]
GI50 ([1]; Table 1 helix 6 derivatives): 5000 nM

Ac-DAFYTLVREIRQYRK (e-Pal) [kR-H6-9]
GI50 ([1]; Table 1 helix 6 derivatives): 500 nM

Ac-DGTQGLNLNGLPK-e-Pal [NR-1]
GI50 ([1]; Table 2 HVR derivatives): > 10000 nM

Ac-Doa-VEDAFYTLVREIRQYR [kR-H6-5]
GI50 ([1]; Table 1 helix 6 derivatives): 3300 nM

Ac-ESGPGLNLNSLNKK-e-Pal [HR-1]
GTP-bound Ras (fraction of control) [2]: reduction in activated (GTP-bound) Ras
GI50 ([1]; Table 2 HVR derivatives): 250 nM
growth of Ras-dependent cancer cells (cell number, percent of control) [3]: growth inhibition of Ras-dependent cancer cells

Ac-GLNVKIKKK-e-Pal [kR-4A-8]
GI50 ([1]; Table 2 HVR derivatives): > 10000 nM

Ac-KEKLNSKDGKKKKKKSKTKK-e-Pal [kR-4B-1]
cell motility (average closure) [4]: inhibition of HCC15 cell motility
cell invasion (average number of cells migrated) [5]: inhibition of HCC15 cell invasion
cell migration (average number of cells migrated) [6]: inhibition of NCC15 cell migration
GI50 ([1]; Table 2 HVR derivatives): 1450 nM
cooperative interactions with membrane lipids ([7]; phospholipid bilayers): showed the best cooperative interactions with membrane lipids

Ac-KKKKSKTKK-e-Pal [kR-4B-7]
GI50 ([1]; Table 2 HVR derivatives): 2000 nM

Ac-KKKSKTKK-e-Pal [kR-4B-8]
tumor weight at the time of sacrifice ([8]; 10 mg/kg s.c. every second day for 20 days, control 1.21 g): 0.35 g
tumor growth ([8]; 10 mg/kg s.c. near the tumor every second day for 20 days): abolished the growth
GI50 ([1]; Table 2 HVR derivatives): 2300 nM

Ac-KLNSKDGKKKKKKSKTKK-e-Pal [kR-4B-2]
GTP-bound Ras (fraction of control) [2]: reduction in activated (GTP-bound) Ras

Ac-KTPGAVKIKKK-e-Pal [kR-4A-5]
GI50 ([1]; Table 2 HVR derivatives): 5000 nM

Ac-KTPGLNVKIKKK-e-Pal [kR-4A-4]
growth inhibition (cell number, percent of control) [9]: growth inhibition
GTP-bound Ras (fraction of control) [2]: reduction in activated (GTP-bound) Ras
GI50 ([1]; Table 2 HVR derivatives): 700 nM

Ac-LRYQRIQRVLTYFAK-e-Pal (all D) [kR-H6-31]
GI50 ([1]; Table 1 helix 6 derivatives): 25 ± 10 nM

Ac-PGLNVKIKKK-e-Pal [kR-4A-7]
GI50 ([1]; Table 2 HVR derivatives): > 10000 nM

Ac-RLKKISKEEKTPGSVKIKKK-e-Pal [kR-4A-1]
cell motility (average closure) [4]: inhibition of HCC15 cell motility
cell invasion (average number of cells migrated) [5]: inhibition of HCC15 cell invasion
cell migration (average number of cells migrated) [6]: inhibition of NCC15 cell migration
GI50 ([1]; Table 2 HVR derivatives): 3100 nM

Ac-RYQRIERVLTYFAK-e-Pal (all D) [kR-H6-23]
growth inhibition (cell number, percent of control) [9]: growth inhibition
GI50 ([1]; Table 1 helix 6 derivatives): 25 ± 10 nM
fold more toxic to cancer cells than kR-H6-6 ([10]; retroinverso version versus kR-H6-6): 10 fold

Ac-RYQRIQRVLTYFAK-e-Pal (all D) [kR-H6-30]
GI50 ([1]; Table 1 helix 6 derivatives): 10 ± 5 nM
additional fold reduction in GI50 ([10]; Glu162 replaced with Gln): 1.7 fold

Ac-RYQRIQRVLTYFK-e-Pal (all D) [kR-H6-32]
GI50 ([1]; Table 1 helix 6 derivatives): 10 ± 4 nM

Ac-TPGLNVKIKKK-e-Pal [kR-4A-6]
GI50 ([1]; Table 2 HVR derivatives): > 10000 nM

Ac-VEDAFYTLVREIRQYR [kR-H6-16]
GI50 ([1]; Table 1 helix 6 derivatives): > 5000 nM

Ac-VEDAFYTLVREIRQYRK (e-Pal) [kR-H6-7]
GI50 ([1]; Table 1 helix 6 derivatives): 2700 nM

Ac-YQRIQRVLTYFAK-e-Pal (all D) [kR-H6-33]
GI50 ([1]; Table 1 helix 6 derivatives): 4.5 ± 1 nM

Ac-YQRIQRVLTYFK-e-Pal (all D) [kR-H6-11]
GI50 ([1]; Table 1 helix 6 derivatives): 10 nM

Ac-YQRKQRVLTYFK-e-Pal (all D) [kR-H6-13]
GI50 ([1]; Table 1 helix 6 derivatives): 60 nM

Ac-YRLKKISKEEKTPGK-e-Pal [kR-4A-2]
GI50 ([1]; Table 2 HVR derivatives): 1650 nM

Cap-YQRVQRVLTYF (all D) [kR-H6-49]
GI50 ([1]; Table 1 helix 6 derivatives): 0.8 nM

Cap-YQRVQRVLTYW (all D) [kR-H6-41]
GI50 ([1]; Table 1 helix 6 derivatives): 180 ± 40 nM

HVR peptide: represents the hypervariable region of K-Ras-4B, residues 165 through 183; lacks post-translational modifications (QYRLKKISKEEKTPGCVKI; K-Ras4B; UniProt P01116 165-183, looked up, fragment) [reference compound]
Hill coefficient (membrane binding cooperativity) ([7]; Hill equation): 1.106±0.001

Lau-HQRVQRVLTYF (all D) [kR-H6-43]
GI50 ([1]; Table 1 helix 6 derivatives): 300 ± 50 nM

Lau-WQRVQRVLTYF (all D) [kR-H6-44]
GI50 ([1]; Table 1 helix 6 derivatives): 1 ± 1 nM

Lau-YKRVQRVLTYF (all D) [kR-H6-42]
GI50 ([1]; Table 1 helix 6 derivatives): 300 ± 50 nM

Lau-YQRVQRVLTYF (all D) [kR-H6-38]
GI50 ([1]; Table 1 helix 6 derivatives): 15 nM

Lau-YQRVQRVLTYFA (all D) [kR-H6-47]
GI50 ([1]; Table 1 helix 6 derivatives): 1 ± 1 nM

Lau-YQRVQRVLTYW (all D) [kR-H6-39]
GI50 ([1]; Table 1 helix 6 derivatives): 90 ± 15 nM

Myr-YQRVQRVLTYW (all D) [kR-H6-40]
GI50 ([1]; Table 1 helix 6 derivatives): 20 ± 10 nM

Oct-YQRVQRVLTYF (all D) [kR-H6-50]
GI50 ([1]; Table 1 helix 6 derivatives): 4 ± 1 nM

Pal-Aib-YQRIQRVLTYF (all D) [kR-H6-35]
GI50 ([1]; Table 1 helix 6 derivatives): 450 ± 50 nM

Pal-KTKSKKKKK-NH2 All-D [kR-4B-6]
GI50 ([1]; Table 2 HVR derivatives): 1700 nM

Pal-KVEDAFYTLVREIRQYR [kR-H6-4]
GI50 ([1]; Table 1 helix 6 derivatives): > 5000 nM

Pal-LRYQRIERVLTYFADEV (all D) [kR-H6-2]
GI50 ([1]; Table 1 helix 6 derivatives): 300 nM

Pal-RYQRIERVLTYFADEV (all D) [kR-H6-1]
GI50 ([1]; Table 1 helix 6 derivatives): 1350 nM

Pal-RYQRIQRVLTYF (all D) [kR-H6-20]
GI50 ([1]; Table 1 helix 6 derivatives): 250 nM

Pal-RYQRIQRVLTYFA (all D) [kR-H6-19]
GI50 ([1]; Table 1 helix 6 derivatives): > 1000 nM

Pal-YQRIQRVLTYF (all D) [kR-H6-34]
GI50 ([1]; Table 1 helix 6 derivatives): 18 ± 5 nM

Pal-YQRIQRVLTYFA (all D) [kR-H6-21]
GI50 ([1]; Table 1 helix 6 derivatives): 30 nM

Pal-YQRKQRVLTYF (all D) [kR-H6-14]
GI50 ([1]; Table 1 helix 6 derivatives): 40 nM

Pal-YQRVQRVLTYF (all D) [kR-H6-36]
GI50 ([1]; Table 1 helix 6 derivatives): 10 ± 5 nM

Pal-e-KAFYTLVREIRKHK [kR-H6-18]
GI50 ([1]; Table 1 helix 6 derivatives): > 1000 nM

Pal-e-KAFYTLVREIRQY [kR-H6-10]
GI50 ([1]; Table 1 helix 6 derivatives): 300 nM

Pal-e-KAFYTLVREIRQYRL [kR-H6-27]
GI50 ([1]; Table 1 helix 6 derivatives): 280 ± 30 nM

Pal-e-KAFYTLVRQIRQYRL [kR-H6-28]
GI50 ([1]; Table 1 helix 6 derivatives): 250 ± 50 nM

Pal-e-KFYTLVREIRQYR [kR-H6-12]
GI50 ([1]; Table 1 helix 6 derivatives): 180 nM

e-Pal-KRYQRIERVLTYFADEV (all D) [kR-H6-3]
amount of Ras protein [11]: reduced the amount of Ras protein in lung cancer cells in a concentration-dependent manner
GI50 ([1]; Table 1 helix 6 derivatives): > 5000 nM
Ras protein levels by immunostaining [12]: reduction in protein levels
pattern of K-Ras distribution [12]: lack of characteristic punctuate pattern of K-Ras distribution
